Source: article PMC8428848, “Ancient role of sulfakinin/cholecystokinin-type signalling in inhibitory regulation of feeding processes revealed in an echinoderm” (eLife, 2021)
Square brackets hold non-standard residues; d marks the D form. Peptide text beside a SMILES is read from it. sY = N[C@@H](Cc1ccc(OS(=O)(=O)O)cc1)C(=O)O; pGlu = O=C1CC[C@@H](C(=O)O)N1

Tests used:
ArSK/CCKR = target: T1, ArSK/CCKR (Asterias rubens, UniProt A0A8F2ZGB9); experiment: Aequorin bioluminescence receptor assay in CHO-K1 cells (G5A) co-transfected with ArSK/CCKR and human Gα16; type: cell-based; conditions: for EC50: luminescence as % of maximal response, four to six independent transfections, two to three replicates each, 3 × 10^−17 to 10^−4 M
T1 sequence (A0A8F2ZGB9 1-434): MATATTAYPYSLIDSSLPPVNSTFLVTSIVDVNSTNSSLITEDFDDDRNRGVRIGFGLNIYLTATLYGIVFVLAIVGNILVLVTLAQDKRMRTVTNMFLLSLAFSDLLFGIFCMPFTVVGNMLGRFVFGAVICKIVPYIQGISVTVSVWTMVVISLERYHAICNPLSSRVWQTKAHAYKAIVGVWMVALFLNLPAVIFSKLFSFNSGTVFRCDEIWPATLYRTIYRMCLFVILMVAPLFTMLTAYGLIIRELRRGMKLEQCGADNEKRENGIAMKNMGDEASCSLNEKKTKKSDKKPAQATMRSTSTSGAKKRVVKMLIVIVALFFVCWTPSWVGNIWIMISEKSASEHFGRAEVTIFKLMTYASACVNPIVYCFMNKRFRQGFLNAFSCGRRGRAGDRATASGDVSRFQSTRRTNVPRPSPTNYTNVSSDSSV
Excerpt: (§1) To enable testing of ArSK/CCK1 and ArSK/CCK2 as candidate ligands for ArSK/CCKR, a full-length cDNA encoding ArSK/CCKR was synthesized by GenScript (Piscataway, NJ) and cloned into pcDNA 3.1+ vector (Invitrogen, Thermo Fisher Scientific, Waltham, MA). A partial Kozak translation initiation sequence (CACC) was introduced upstream to the start codon (ATG). CHO-K1 cells stably expressing the mitochondrial targeted calcium-sensitive bioluminescent reporter GFP-aequorin fusion protein (G5A) ([Baubet et al., 2000]) were used as a heterologous expression system for ArSK/CCKR. These cells have been used previously for neuropeptide receptor deorphanisation ([Bauknecht and Jékely, 2015]) and were generously supplied to us by Dr Gáspár Jékely (University of Exeter). The cell line was generated using the CHO-K1 cell line from Sigma-Aldrich (85051005; RRID: CVCL_0214), which is certified by the European Collection of Authenticated Cell Cultures (ECACC), and expression of the GFP-aequorin fusion protein (G5A) in the cell line was determined by functionality in displaying calcium-activated luminescence. […] Cells were cultured, co-transfected with the pcDNA 3.1+ vector containing the ArSK/CCKR cDNA sequence and plasmids encoding the promiscuous human G-protein Gα16. Then bioluminescence-based receptor assays were performed, as described previously for A. rubens luqin-type receptors ([Yañez-Guerra et al., 2018]).
[…] Concentration-response data were determined as a percentage of the highest response for each peptide (100% activation). EC50 values were calculated from concentration-response curves based on four to six independent transfections and averaging two to three replicates in each transfection using Prism 6.0 (RRID:SCR_002798; GraphPad software, La Jolla, CA). Cells transfected with an empty vector were used for control experiments.

[1] = test system: CHO-K1 cells transfected with an empty vector; experiment: Control: CHO-K1 aequorin (G5A) cells transfected with empty pcDNA 3.1(+) vector; type: cell-based, Chinese hamster
Excerpt: as §1
The peptides were diluted in distilled water and tested as candidate ligands for ArSK/CCKR at concentrations ranging from 3 × 10^−17 to 10^−4 M. Concentration-response data were determined as a percentage of the highest response for each peptide (100% activation). EC50 values were calculated from concentration-response curves based on four to six independent transfections and averaging two to three replicates in each transfection using Prism 6.0 (RRID:SCR_002798; GraphPad software, La Jolla, CA). Cells transfected with an empty vector were used for control experiments.

[2] = test system: cardiac stomach preparations; experiment: In vitro contraction of cardiac stomach preparations (organ bath); set-up: species or system Asterias rubens; conditions: for contraction of cardiac stomach preparations: in vitro, 1 nM to 1 μM, n = 5–9; for effect compared with NGFFYamide (100 nM): peptide 1 µM, Student's t-test p > 0.05, data not shown
Method: (§2) Effects of peptides on preparations were tested and recorded using an isotonic transducer (MLT0015, ADInstruments Pty Ltd) connected to a bridge amplifier (FE221 Bridge Amp, ADInstruments Pty Ltd) linked to PowerLab data acquisition hardware (2/36, ADInstruments Pty Ltd). Data were collected and analysed using LabChart (RRID:SCR_017551; v8.0.7) software installed on a laptop computer (Lenovo E540, Windows 7 Professional). Stock solutions of synthetic peptides were prepared in distilled water and added to the organ bath to achieve final concentrations ranging from 0.1 nM to 1 μM. To assess the viability of preparations and to enable normalization of responses to ArSK/CCK1 or ArSK/CCK2, the starfish neuropeptide NGFFYamide (100 nM) was tested on cardiac stomach preparations and acetylcholine (10 µM) was tested on tube foot and apical muscle preparations. To assess the importance of tyrosine sulphation for peptide bioactivity, a non-sulphated analog of ArSK/CCK2 (ArSK/CCK2(ns)) was also tested on cardiac stomach (n = 5), tube foot, and apical muscle preparations (data not shown).

tube foot preparations = experiment: In vitro contraction of tube foot preparations (organ bath); set-up: species or system Asterias rubens; conditions: for contraction of tube foot preparations: in vitro, 1 nM to 1 µM, n = 8–10; for mean effect on tube foot preparations, % of the effect of 10 µM acetylcholine: peptide 1 µM
Method: as §2

[3] = test system: apical muscle preparations; experiment: In vitro contraction of apical muscle preparations (organ bath); set-up: species or system Asterias rubens; conditions: for contracting action on apical muscle, % of the effect of 10 µM acetylcholine: highest concentration tested (1 µM), n = 20–23; for contraction of apical muscle preparations: in vitro
Method: as §2

SMILES	EC50 (ArSK/CCKR) [nM]	luminescence response [1]	contraction of cardiac stomach preparations [2]	effect compared with NGFFYamide (100 nM) [2]	contraction of tube foot preparations (tube foot preparations)	mean effect on tube foot preparations, % of the effect of 10 µM acetylcholine (tube foot preparations)	contracting action on apical muscle, % of the effect of 10 µM acetylcholine [3]	contraction of apical muscle preparations [3]	effectiveness on tube foot preparations compared with ArSK/CCK2 (tube foot preparations; 25 and 100 nM, Bonferroni's test p < 0.01 and 0.05)	potency as ligand for ArSK/CCKR compared with ArSK/CCK1 and ArSK/CCK2 (ArSK/CCKR; from EC50 values)
CC(C)C[C@H](NC(=O)CNC(=O)[C@H](Cc1ccccc1)NC(=O)CNC(=O)[C@H](Cc1ccc(OS(=O)(=O)O)cc1)NC(=O)[C@H](CCC(N)=O)NC(=O)[C@H](CC(=O)O)NC(=O)[C@H](CC(=O)O)NC(=O)CNC(=O)CN)C(=O)N[C@@H](Cc1ccccc1)C(=O)N[C@@H](Cc1ccccc1)C(N)=O [ArSK/CCK2] (H-GGDDQ[sY]GFGLFF-NH2; N-terminus assumed)	0.12	did not elicit luminescence responses	concentration-dependent contraction	not significantly different	concentration-dependent contraction	~ 110%	~ 40%	caused contraction	–	–
CC(C)C[C@H](NC(=O)CNC(=O)[C@H](Cc1c[nH]cn1)NC(=O)CNC(=O)[C@H](Cc1ccc(OS(=O)(=O)O)cc1)NC(=O)[C@H](CC(=O)O)NC(=O)[C@H](CC(=O)O)NC(=O)[C@@H](NC(=O)[C@H](CCCCN)NC(=O)[C@H](CO)NC(=O)[C@@H]1CCC(=O)N1)C(C)C)C(=O)N[C@@H](Cc1ccccc1)C(=O)N[C@@H](Cc1c[nH]c2ccccc12)C(N)=O [ArSK/CCK1] ([pGlu]SKVDD[sY]GHGLFW-NH2)	0.25	did not elicit luminescence responses	concentration-dependent contraction	not significantly different	concentration-dependent contraction	~ 220%	~ 40%	caused contraction	significantly more effective than ArSK/CCK2	–
CC(C)C[C@H](NC(=O)CNC(=O)[C@H](Cc1ccccc1)NC(=O)CNC(=O)[C@H](Cc1ccc(O)cc1)NC(=O)[C@H](CCC(N)=O)NC(=O)[C@H](CC(=O)O)NC(=O)[C@H](CC(=O)O)NC(=O)CNC(=O)CN)C(=O)N[C@@H](Cc1ccccc1)C(=O)N[C@@H](Cc1ccccc1)C(N)=O [ArSK/CCK2(ns)] (H-GGDDQYGFGLFF-NH2; N-terminus assumed)	48000	did not elicit luminescence responses	modest contraction	–	did not cause contraction	–	–	no effect	–	five to six orders of magnitude less potent
